From the METLIN SMRT retention time set (Domingo-Almenara et al. 2019)

Assay: gradient 5% acetonitrile 3 min, to 50% in 2 min, to 85% in 15 min, held 3 min, 100 µL/min
Conditions: column: Zorbax Extend-C18 2.1 x 50 mm; eluents: water / acetonitrile, 0.1% formic acid
In short: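 Over 3 months, pure standards in mixtures of ~100 molecules were run by HPLC coupled to a quadrupole time-of-flight mass spectrometer in positive and negative ionization mode. The column was a Zorbax Extend-C18 (2.1 × 50 mm, 1.8 μm) at 100 μL/min, eluted with water and acetonitrile each holding 0.1% formic acid, with 40 μL dead and 900 μL dwell volumes. Retention time was determined from adduct peaks chosen by software and checked manually.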

Compound	RP-LC retention time
Cc1cccc(NS(=O)(=O)c2cc3c(s2)CCN(C(=O)C2CC2)C3)c1	849 s
O=C(Cn1c(=O)oc2ccccc21)N1CCc2nn(CC3CC3)c(=O)n2CC1	682 s
COc1ccc(-c2ncc3c(n2)CCN(S(=O)(=O)c2cccc(F)c2)C3)cc1	1060 s
COc1ccc(Cn2c(=O)n(C(C)C)c(=O)c3oc4ccccc4c32)cc1	976 s
CCN1C(=O)NC(c2cccc(F)c2)C2=C1CN(CCC(=O)NCCOC)C2=O (configuration not stated)	586 s
Cc1oc(-c2[nH]ncc2C(=O)N2CCCC2)cc1S(=O)(=O)Nc1ccc(F)cc1F	698 s
O=C(c1cnccn1)N1CCC(N2C(=O)C(OCC3CC3)C23CCOCC3)CC1 (configuration not stated)	607 s
Cn1cc(C2=CCN(C(=O)c3cccc(F)c3)CC2)c2cccnc21	816 s
O=C1NCCCn2cc(S(=O)(=O)NCc3ccccc3Cl)cc21	686 s
COc1ccc(OC)c(-n2cc(C(=O)O)c3c2C(C(F)(F)F)CC(=O)N3)c1 (configuration not stated)	730 s
O=C(Cn1c(=O)n(-c2ccccc2)c2ncccc21)NCCCN1CCCC1	586 s
O=C(Cn1cccc1-c1nc(-c2ccc(Cl)cc2)cs1)NCCCN1CCCC1	826 s
O=C(O)c1cccc(Nc2c(-c3cccc(O)c3)nc3cnccn23)c1	633 s
O=C(COc1ccc(Cl)cc1Cl)Nc1ccc2c(c1)N(C(=O)C1CC1)CC2	987 s
O=C(NCc1ccco1)c1cnn2c(-c3ccc(Cl)cc3)ccnc12	945 s
CN1C(=O)CN=C(c2ccccc2)c2cc([N+](=O)[O-])ccc21	869 s
COc1cccc(-c2cc3n(n2)CCCN(C(=O)COc2ccccc2)C3)c1	788 s
COc1ccc(S(=O)(=O)NC(CC(=O)O)c2ccccc2)cc1 (configuration not stated)	674 s
COc1cccc(-c2ccc(=O)n(CCc3nc(-c4ccc5c(c4)OCO5)no3)n2)c1	804 s

Compound	RP-LC retention time
Cc1csc(C(=O)NCC(O)c2ccc(C(F)(F)F)cc2)c1 (configuration not stated)	795 s
CC(C)CN1Cc2c(nc3ccccc3c2C(=O)N2CCC(C)CC2)C1=O	834 s
O=C(NCCOc1cccc2cccnc12)c1cnn(-c2ccccc2)n1	623 s
Cc1nn2c(CNS(=O)(=O)c3c(C)noc3C)c(C)nc2s1	640 s
Cc1ccc(CNC(=O)Cn2nc(N3CCCC3)c3ccccc3c2=O)cc1	908 s
Cc1cccc2c(C(=O)NC3CC3)cc(N3CCCC3)nc12	593 s
Cc1ccc(NC(=O)CCC(=O)N2CCSc3nc(C)cc(C)c32)cc1	717 s
CN1C(=O)c2cccnc2Sc2cc(NC(=O)c3ccccc3Cl)ccc21	781 s
O=C(Cc1ccccc1F)N1CCc2[nH]cnc2C1c1ccccc1 (configuration not stated)	632 s
COC(=O)CN1C(=O)C2CCCN2C(=O)c2ccccc21 (configuration not stated)	634 s
COc1cc(Cl)c(C)cc1-n1ccn(Cc2c(F)cccc2Cl)c(=O)c1=O	855 s
COc1ccc(NC(=O)Cn2nc3nc(N4CCCC(C)C4)ccn3c2=O)cc1 (configuration not stated)	734 s
Cn1nc(CNC(=O)C2CC(=O)N(C3CCCCC3)C2)c2c1CCN(S(C)(=O)=O)C2 (configuration not stated)	645 s
CCOc1ccccc1N1CCN(C(=O)c2sc3ncccc3c2-n2cccc2)CC1	1040 s
Cc1ccc(Cn2c(CN3CCC(C(=O)N4CCCC4)CC3)cc3ccccc32)cc1	750 s
Cc1ccc(NC(=O)N2CCc3c(c(-c4nnc(-c5ccc(F)cc5)o4)nn3C)C2)cc1C	943 s
COCC(=O)Nc1ccc(SCc2nnc(-c3ccc4c(c3)OCO4)o2)cc1	789 s
O=C(CC(c1cccc(F)c1)n1cccc1)N1CCN(c2ccccn2)CC1 (configuration not stated)	686 s
CC(C)C(=O)Nc1ccc(C(=O)Nc2nc(-c3ccccc3)cs2)cc1	949 s

Results, then the compound that gave them:

RP-LC retention time	Compound
716 s	Cc1nn(C)c(C)c1S(=O)(=O)N1CCCC(OCc2noc(C3CCOCC3)n2)C1 (configuration not stated)
823 s	CCCN1C(=O)COc2ccc(-c3csc(NC(=O)COC)n3)cc21
759 s	Cc1nnc2sc(SCC(=O)Nc3cccc(C(F)(F)F)c3)nn2c1=O
783 s	O=C(C1CCCN(c2ccc(-c3ccccc3)nn2)C1)N1CCN(c2ccccc2)CC1 (configuration not stated)
918 s	Cc1nc(-c2cccc(-c3noc(CNC(=O)c4ccccc4)n3)c2)cs1
731 s	Cc1ccc(CNC(=O)N2CC(c3nc(C)no3)C3(CCOCC3)C2)cc1 (configuration not stated)
1120 s	CN(C)c1ccc(/C=C/C(=O)c2cc(Cl)ccc2O)cc1
972 s	CCc1c(C)nc2nc(-c3ccccc3)nn2c1Nc1cc(OC)ccc1OC
881 s	O=C(Cn1cccc(-c2nc(-c3ccc(Cl)cc3)no2)c1=O)NC1CCCC1
766 s	CNC(=O)N1CCCC(c2cccc(C(=O)NCc3cc(OC)ccc3OC)c2)C1 (configuration not stated)
885 s	COc1ccccc1NS(=O)(=O)c1ccc2c(c1)C(=O)N(C)c1ncccc1O2
724 s	Cc1cc(C(=O)N2CCC3(CC2)C(=O)N(C)c2ccccc23)n(C)n1
1090 s	COc1ccc(-c2csc(NC(=O)Cc3csc(-c4ccccc4)n3)n2)cc1
740 s	CCN1C(=O)C2(CCN(C(=O)NC(C)C)CC2)c2ccccc21
713 s	O=C(C1CCCN(c2ncnc3c2nc2n3CCCCC2)C1)N1CCCCC1 (configuration not stated)
609 s	O=C(CN1C(=O)c2ccccc2C1=O)Nc1nnc(C2=COCCO2)o1
1050 s	COc1ccccc1NC(=O)CSc1cc(N2CCN(c3ccccc3OC)CC2)ncn1
730 s	Cc1ccc(C)c(NC(=O)Cn2nc3c(N4CCCCCC4)nccn3c2=O)c1
814 s	O=C(CN1C(=O)C2CCCCN2c2ccc(C(=O)N3CCCC3)cc21)NC1CCCCC1 (configuration not stated)
1150 s	Cc1ccc(Cn2c(N3CCCC(C(=O)NCCC4=CCCCC4)C3)nc3ccsc3c2=O)cc1 (configuration not stated)
647 s	Cc1cc(C)cc(C(=O)N2CCN(c3nc(CN4CCOCC4)cs3)CC2)c1
1250 s	CC(=O)Nc1cc(C(=O)N2CCN(c3cc(C)ccc3C)CC2)c2ccc(C)nc2c1
553 s	COc1cc(S(=O)(=O)NC2CC(C)(C)NC(C)(C)C2)ccc1F
904 s	COc1cc(-c2nnc(/C=C/c3ccccc3)o2)cc(OC)c1OC
916 s	Cc1noc(C)c1-c1ccc(S(=O)(=O)NCc2ccccc2)cc1
603 s	COCc1cc(=O)n(CC(=O)NCc2ccc(F)cc2F)c(N)n1
642 s	O=C(CCCn1c(=O)c2cccn2c2ccc(F)cc21)Nc1ccc2c(c1)OCCO2
979 s	O=S(=O)(CCc1noc(-c2ccc3c(c2)OCO3)n1)c1ccc(Cl)cc1
1260 s	Clc1ccc(-c2csc(N3CCOCC3)n2)c(Cl)c1
